Reference: patent US7902249B2, “Indole derivatives substituted with long-chain alcohols and medicaments containing them” (Meiji Dairies Corporation, priority 2002, dated 2011)
“Also recorded” adds a separate entry of the source.

How the values were obtained:
human blood cells = assay: Preventive effect on hemolysis in human blood cells induced by free radicals; type: cell-based; conditions: compared with control group (FIG. 2)
Experimental: An experiment was conducted in accordance with the method of D. Blache. FASEB J. et al. (E. Bourdon, N. Loreau & D. Blache. FABES J. “Glucose and free radicals impair the antioxidant properties of serum albumin”, 13, 233-244(1999)). The time required for 50% hemolysis (HT50) was measured and the extension of the time required for HT50 compared with that of a control group was plotted on a graph. In this experiment, Vitamin E was employed as a positive control.

[1] = tested on: Human neuroblastoma cells, Lan-1; assay: Induction of proliferation, differentiation and apoptosis of neuroblastoma cells; type: cell-based; design: key to Apoptosis / Proliferation / Differentiation: ++++: Extremely strongly stimulated (reinforced).; +++: Very strongly stimulated (reinforced).; ++: Strongly stimulated (reinforced).; +: Stimulated (reinforced).; +/−: No change.; −: Decreased (weakened); conditions: for effects on induction of differentiation or apoptosis versus proliferation: Lan-1 cells, summary of Table 1
Excerpt: Human neuroblastoma cells, Lan-1 (Lan-1: a human neuroblastoma cell line with M1 and M2 muscarinic receptors conjugated with intracellular Ca^2+) were used to investigate the effects of the present compounds on the induction of proliferation, differentiation and apoptosis.

[2] = tested on: Fetal rat neurons in primary cultures; assay: Effect on neurite outgrowth and neuron survival; type: cell-based; conditions: 10^−6 and 10^−7 M, incubation for 3 days, versus control group (FIG. 1)
Experimental: This experiment was conducted in accordance with the method of Luu, et al. (C. Girlanda-Junges, F. Keyling-Bilger, G. Schemitt & B. Luu, “Effect of Cyclohexenonic Long Chain Fatty Alcohols on Neurite Outgrowth. Study on Structure-Activity Relationship”, Tetrahedron, 54, 7735-77481998)). Fetal rat neurons in primary cultures were treated with Compound 1 at the concentrations of 10^−6 and 10^−7 M, followed by incubation for 3 days.

Row | Compound | extension of the time required for 50% hemolysis (HT50) (human blood cells) | Apoptosis ([1]; Day 1, 0.1 μM) | Differentiation ([1]; Day 1, 0.1 μM) | Proliferation ([1]; Day 1, 0.1 μM) | Apoptosis ([1]; Day 1, 10 μM) | Differentiation ([1]; Day 1, 10 μM) | Proliferation ([1]; Day 1, 10 μM) | Apoptosis ([1]; Day 1, 100 μM) | Differentiation ([1]; Day 1, 100 μM) | Proliferation ([1]; Day 1, 100 μM) | Apoptosis ([1]; Day 2, 0.1 μM) | Differentiation ([1]; Day 2, 0.1 μM) | Proliferation ([1]; Day 2, 0.1 μM) | Apoptosis ([1]; Day 2, 10 μM) | Differentiation ([1]; Day 2, 10 μM) | Proliferation ([1]; Day 2, 10 μM) | Apoptosis ([1]; Day 2, 100 μM) | Differentiation ([1]; Day 2, 100 μM) | Proliferation ([1]; Day 2, 100 μM) | Apoptosis ([1]; Day 5, 0.1 μM) | further results
1 | OCCCCCCCCCCCCCCCCc1c[nH]c2ccccc12 [Compound 1, 3-(16-hydroxyhexadecyl)indole] | extended HT50 | − | +/− | + | +/− | ++ | + | + | +++ | +/− | − | +/− | ++ | +/− | +++ | + | + | ++++ | − | − | melting point: 79 to 80 °C; Differentiation ([1]; Day 5, 0.1 μM): +/−; Proliferation ([1]; Day 5, 0.1 μM): +/−; Apoptosis ([1]; Day 5, 10 μM): ++; Differentiation ([1]; Day 5, 10 μM): +++; Proliferation ([1]; Day 5, 10 μM): +/−; Apoptosis ([1]; Day 5, 100 μM): +++; Differentiation ([1]; Day 5, 100 μM): +; Proliferation ([1]; Day 5, 100 μM): −; Apoptosis ([1]; Day 7, 0.1 μM): +/−; Differentiation ([1]; Day 7, 0.1 μM): +; Proliferation ([1]; Day 7, 0.1 μM): +/−; Apoptosis ([1]; Day 7, 10 μM): ++; Differentiation ([1]; Day 7, 10 μM): ++++; Proliferation ([1]; Day 7, 10 μM): +/−; Apoptosis ([1]; Day 7, 100 μM): +++; Differentiation ([1]; Day 7, 100 μM): ++; Proliferation ([1]; Day 7, 100 μM): −; effects on induction of differentiation or apoptosis versus proliferation [1]: stronger effects on induction of differentiation or apoptosis of neuroblastoma cells rather than on proliferation; proportion of the neurons with neurites of 50 μm or longer [2]: higher in the treated group than in the control group
2 | OCCc1c[nH]c2ccccc12 [Compound 2, 3-(2-hydroxyethyl)indole] | extended HT50 |  |  |  |  |  |  |  |  |  |  |  |  |  |  |  |  |  |  |  | 
3 | OCCCCCCCCCCc1c[nH]c2ccccc12 [Compound 3, 3-(10-hydroxydecyl)indole] |  | − | + | + | − | +++ | +/− | ++ | + | − | − | + | + | + | ++ | +/− | ++ | + | +/− | +/− | Differentiation ([1]; Day 5, 0.1 μM): −; Proliferation ([1]; Day 5, 0.1 μM): +; Apoptosis ([1]; Day 5, 10 μM): +; Differentiation ([1]; Day 5, 10 μM): ++; Proliferation ([1]; Day 5, 10 μM): +/−; Apoptosis ([1]; Day 5, 100 μM): ++; Differentiation ([1]; Day 5, 100 μM): +++; Proliferation ([1]; Day 5, 100 μM): +/−; Apoptosis ([1]; Day 7, 0.1 μM): +/−; Differentiation ([1]; Day 7, 0.1 μM): +/−; Proliferation ([1]; Day 7, 0.1 μM): ++; Apoptosis ([1]; Day 7, 10 μM): +; Differentiation ([1]; Day 7, 10 μM): +++; Proliferation ([1]; Day 7, 10 μM): +/−; Apoptosis ([1]; Day 7, 100 μM): ++++; effects on induction of differentiation or apoptosis versus proliferation [1]: stronger effects on induction of differentiation or apoptosis of neuroblastoma cells rather than on proliferation
4 | OCCCCCCCCCCCc1c[nH]c2ccccc12 [Compound 4, 3-(11-hydroxyundecyl)indole] | extended HT50; also recorded: strong effect | − | − | ++ | − | ++ | + | +++ | + | +/− | − | + | + | + | ++ | +/− | +++ | − | − | − | Differentiation ([1]; Day 5, 0.1 μM): +/−; Proliferation ([1]; Day 5, 0.1 μM): +/−; Apoptosis ([1]; Day 5, 10 μM): −; Differentiation ([1]; Day 5, 10 μM): ++; Proliferation ([1]; Day 5, 10 μM): +/−; Apoptosis ([1]; Day 5, 100 μM): +; Differentiation ([1]; Day 5, 100 μM): ++++; Proliferation ([1]; Day 5, 100 μM): +; Apoptosis ([1]; Day 7, 0.1 μM): −; Differentiation ([1]; Day 7, 0.1 μM): +/−; Proliferation ([1]; Day 7, 0.1 μM): ++; Apoptosis ([1]; Day 7, 10 μM): +/−; Differentiation ([1]; Day 7, 10 μM): ++; Proliferation ([1]; Day 7, 10 μM): +/−; Apoptosis ([1]; Day 7, 100 μM): ++++; effects on induction of differentiation or apoptosis versus proliferation [1]: stronger effects on induction of differentiation or apoptosis of neuroblastoma cells rather than on proliferation
